Assay results published in patent US20260091082A1, “CYCLIC PEPTIDE DERIVATIVE COMPOSITION FOR TREATING OR PREVENTING EYE DISEASE” (DKS Co. Ltd., priority 2022, published 2026).
Several values for one entry are separate records, joined by “and”; a condition that tells them apart may be missing. Identical values can stand only once.

System: anterior chamber aqueous humor pressure load rat model
Assay: Retinal thickness (IPL, INL, ONL) in retinal damage model induced by anterior chamber aqueous humor pressure load
Type: in vivo, Rat; Slc: SD
Procedure: • Name: Compound 9 • Source: Synthesized in the above Examples • Used amount: 0.4 mL (50 mg/mL solution) • Storage conditions: Freezing, light shielding
Method for preparing test substance (1 mg/mL): A high concentration solution prepared at 50 mg/mL was diluted 50 times with a medium to prepare a 1 mg/mL administration solution.
• Name: MK-801 • Distributor: SIGMA-ALDRICH • Use amount: 0.0501 g • Storage condition: refrigerated (2° C. to 8° C.)
Method for preparing positive control substance (10 mg/mL): 0.0501 g was weighed out and made up to a total volume of 5 mL with a control substance (physiological saline).
• Species and strains: Rat; Slc: SD • Number of animals on arrival and sex: 50 males • Age in weeks at arrival: 6 weeks old • Body weight range at arrival: 147.2 to 170.0 g • Source: Japan SLC, Inc.
Grouping was performed two days before the first creation of the retinal damage model induced by an anterior chamber aqueous humor pressure load. Using the daily body weight as an index, stratified random allocation was performed using SAS (Ver. 9.3, SAS Institute Japan Ltd.) and EXSUS (Ver. 8.0, CAC Croit Corporation) so that an average value of the body weights of each group was approximately uniform.
• Administration route: Eyedrop administration, intravenous administration • Administration method (eyedrop): Eyedrop administration was performed on a treated eye (right eye) of a rat using a micropipette 4 times a day (at intervals of 1.5 hours or more). • Administration method (intravenous): The amount of administration solution, calculated from the body weight on the day of administration, was administered from the tail vein using a syringe and an injection needle about 30 minutes before ischemic load. • Time of administration: Administration was performed according to the following schedule.
1. 10 mg/kg xylazine hydrochloride was intramuscularly administered on the model creation day (day 0). A rat was placed in an anesthesia box and subjected to general anesthesia with isoflurane (5%, oxygen:nitrous oxide=1:3). When anesthesia was effective, the rat was taken out of the anesthesia box, an inhalation anesthetic mask was worn, and anesthesia was maintained with isoflurane (1% to 5%, oxygen nitrous oxide=1:3).
2. The body temperature was maintained at 37° C. with a warming mat, and a mydrin P ophthalmic solution was instilled in the right eye (treated eye) of the rat to dilate the pupil, then the cravit ophthalmic solution 1.5% (Santen Pharmaceutical Co., Ltd.) was instilled.
3. A bottle of an IV bag containing physiological saline was previously suspended so that a water surface was 155 cm (100 mmHg or more) higher than the eye of the rat. The IV bag was connected to a pediatric infusion set (Terumo Corporation), a 27 G injection needle thereof was inserted into and fixed to the anterior chamber while slightly dripping the liquid from a needle tip. The model was created in the light phase (6:00 to 18:00) in consideration of the diurnal variation of the intraocular pressure.
4. After the needle was inserted into the anterior chamber, pressure (100 mmHg or more) was loaded and maintained in the anterior chamber by associating the reflux system.
5. After an ischemic load for 45 minutes, the injection needle and the like were removed, the inhalation anesthetic mask was removed, and the rat was sufficiently woken up under a warming mat, and then returned to the cage.
6. For 2 days after surgery, 10 mg/kg xylazine hydrochloride was intramuscularly administered as an analgesic for the purpose of alleviating the pain after the treatment.
1. Fourteen days after model creation, general anesthesia was performed with isoflurane (5%, oxygen:nitrous oxide=1:3), euthanasia was then performed by exsanguination, a suture was placed as a marker at the 12 o'clock position of the ocular conjunctiva, and eyeball enucleation was performed.
2. […]

[1] = 900 μm from optic disk, (pre) 1 mg/mL eye drop 4 times/day on the 2 days before model creation (test group 2), 14 days after model creation, mean ± S.E., 10 animals, listed as compound 9
[2] = compound 9 (pre), 1 mg/mL eye drop, right eye, individual animals 201-210

Compound: CC[C@@]1(C)Oc2cc(ccc2O)C[C@H](NC)C(=O)N[C@@H](C(C)C)C(=O)N[C@@H]1C(=O)N[C@@H](CC(=O)O)C(=O)O [Compound 9]
- Thickness of ONL (μm) (900 μm from optic disk, (pre) 1 mg/mL eye drop 4 times/day on the 2 days before model creation (test group 2), 14 days after model creation, mean ± S.E., 10 animals): 42.55±1.13 μm
- Thickness of INL (μm) [1]: 30.39 ± 1.24 μm
- Thickness of ONL (μm) [1]: 42.55 ± 1.13 μm
- Inhibitory effect on retinal damage induced by ischemia of aqueous humor pressure load (anterior chamber aqueous humor pressure load rat model, overall conclusion): inhibitory effect on retinal damage induced by ischemia of aqueous humor pressure load was observed
- Thickness of ONL, distance from optic disk 600 μm (single measurement) [2]: 41.121 μm and 44.598 μm and 41.326 μm (2×) and 41.066 μm and 41.161 μm and 38.743 μm and 41.131 μm and 38.275 μm and 37.963 μm and 43.645 μm and 43.106 μm and 45.168 μm and 47.317 μm and 40.325 μm and 41.137 μm and 43.653 μm and 45.150 μm and 48.296 μm and 46.805 μm and 44.685 μm and 46.160 μm and 42.772 μm and 45.479 μm and 40.612 μm and 40.588 μm and 46.031 μm and 41.299 μm and 42.932 μm and 48.910 μm
- Thickness of ONL, distance from optic disk 900 μm (single measurement) [2]: 39.011 μm and 42.742 μm and 45.091 μm and 47.744 μm and 45.684 μm and 43.996 μm and 37.237 μm and 36.389 μm and 38.143 μm and 43.578 μm and 39.518 μm and 41.375 μm and 35.794 μm and 34.452 μm and 41.663 μm and 42.383 μm and 44.814 μm and 41.883 μm and 43.824 μm and 46.139 μm and 43.354 μm and 38.661 μm and 41.202 μm and 40.552 μm and 46.165 μm and 45.398 μm and 48.471 μm and 47.795 μm and 47.248 μm and 46.278 μm
- Thickness of ONL, distance from optic disk 300 μm (single measurement) (compound 9 (pre), 1 mg/mL eye drop, right eye, individual animals 201-210, aqueous humor pressure load rat model): 50.813 μm and 51.311 μm and 53.250 μm and 34.452 μm and 30.709 μm and 34.312 μm and 40.039 μm and 41.413 μm and 11.468 μm and 39.811 μm and 37.328 μm and 39.938 μm and 33.741 μm and 35.794 μm and 35.603 μm and 42.742 μm and 44.362 μm and 44.355 μm and 36.433 μm and 40.355 μm and 37.980 μm and 39.617 μm and 40.341 μm and 39.065 μm and 40.883 μm and 41.062 μm and 40.112 μm and 37.690 μm and 36.851 μm and 39.911 μm
- Thickness of INL (μm), Distance from Optic Disk 300 μm (compound 9 (pre), 1 mg/mL eye drop, right eye, 300 μm from optic disk, individual measurements per animal): 33.065 μm (2×) and 33.507 μm and 34.677 μm and 27.561 μm and 24.567 μm and 22.703 μm and 32.389 μm and 34.110 μm and 29.740 μm and 25.207 μm and 23.667 μm and 23.845 μm and 26.312 μm and 23.484 μm and 24.843 μm and 33.881 μm and 35.521 μm and 29.211 μm and 29.882 μm and 27.608 μm and 23.876 μm and 25.810 μm and 24.277 μm and 32.198 μm and 33.996 μm and 30.756 μm and 28.424 μm and 29.579 μm and 30.220 μm
- Thickness of IPL (μm), Distance from Optic Disk 300 μm (compound 9 (pre), 1 mg/mL eye drop, right eye, 300 μm from optic disk, individual measurements per animal, listed as compond 9): 30.656 μm and 25.003 μm and 29.032 μm and 29.077 μm and 33.909 μm (2×) and 31.903 μm and 34.939 μm and 37.800 μm and 36.389 μm and 29.133 μm and 28.638 μm and 29.937 μm and 29.144 μm (2×) and 35.013 μm and 33.871 μm and 31.072 μm and 34.110 μm and 29.907 μm and 35.630 μm and 33.931 μm and 27.028 μm and 28.472 μm and 34.310 μm and 34.680 μm and 32.998 μm and 28.183 μm and 25.310 μm and 26.057 μm
- Thickness of INL (μm), Distance from Optic Disk 300 μm, Mean (compound 9 (pre), 1 mg/mL eye drop, right eye, 300 μm from optic disk, mean per animal): 33.750 μm and 24.944 μm and 32.080 μm and 24.240 μm and 24.880 μm and 34.156 μm and 28.900 μm and 24.654 μm and 32.317 μm and 29.408 μm
- Thickness of IPL (μm), Distance from Optic Disk 300 μm, Mean (compound 9 (pre), 1 mg/mL eye drop, right eye, 300 μm from optic disk, mean per animal, listed as compond 9): 28.230 μm and 31.630 μm and 36.376 μm and 29.236 μm and 31.100 μm and 32.951 μm and 33.216 μm and 29.810 μm and 33.996 μm and 26.517 μm
- Thickness of INL (μm), Distance from Optic Disk 600 μm (compound 9 (pre), 1 mg/mL eye drop, right eye, 600 μm from optic disk, individual measurements per animal): 33.065 μm and 33.351 μm and 31.150 μm and 27.855 μm and 34.827 μm and 31.493 μm and 24.207 μm and 30.656 μm and 26.506 μm and 25.323 μm and 34.640 μm and 33.153 μm and 30.688 μm and 31.462 μm and 25.000 μm and 25.819 μm and 36.789 μm and 36.469 μm and 35.907 μm and 35.051 μm and 38.781 μm and 30.223 μm and 27.431 μm and 28.512 μm and 22.710 μm and 34.691 μm and 32.298 μm and 28.240 μm and 38.410 μm and 32.790 μm
- Thickness of IPL (μm), Distance from Optic Disk 600 μm (compound 9 (pre), 1 mg/mL eye drop, right eye, 600 μm from optic disk, individual measurements per animal, listed as compond 9): 35.272 μm and 36.967 μm and 39.787 μm and 38.516 μm and 42.129 μm and 44.421 μm and 35.566 μm and 35.907 μm and 34.333 μm and 35.134 μm and 37.963 μm and 38.006 μm and 42.772 μm and 42.744 μm and 37.116 μm and 32.671 μm and 45.118 μm and 45.778 μm and 34.473 μm and 36.322 μm and 37.125 μm and 37.847 μm and 44.472 μm and 36.393 μm and 35.013 μm and 40.678 μm and 44.362 μm and 37.009 μm and 45.280 μm and 36.469 μm
- Thickness of INL (μm), Distance from Optic Disk 600 μm, Mean (compound 9 (pre), 1 mg/mL eye drop, right eye, 600 μm from optic disk, mean per animal): 35.066 μm and 29.743 μm and 31.250 μm and 27.792 μm and 24.846 μm and 34.161 μm and 31.483 μm and 26.353 μm and 37.223 μm and 34.583 μm
- Thickness of IPL (μm), Distance from Optic Disk 600 μm, Mean (compound 9 (pre), 1 mg/mL eye drop, right eye, 600 μm from optic disk, mean per animal, listed as compond 9): 36.455 μm and 38.717 μm and 43.674 μm and 35.955 μm and 34.827 μm and 38.882 μm and 43.293 μm and 35.599 μm and 45.392 μm and 35.755 μm
- Thickness of INL (μm), Distance from Optic Disk 900 μm (compound 9 (pre), 1 mg/mL eye drop, right eye, 900 μm from optic disk, individual measurements per animal): 34.804 μm and 34.579 μm and 36.245 μm and 30.909 μm and 31.452 μm and 30.862 μm and 27.037 μm and 29.926 μm (2×) and 22.638 μm and 25.416 μm and 27.482 μm and 24.116 μm and 23.512 μm and 24.261 μm and 34.939 μm and 35.346 μm and 31.197 μm and 28.785 μm and 32.162 μm and 30.368 μm and 28.858 μm and 27.378 μm and 29.877 μm and 36.469 μm and 34.623 μm and 36.346 μm and 31.402 μm and 31.035 μm and 29.653 μm
- Thickness of IPL (μm), Distance from Optic Disk 900 μm (compound 9 (pre), 1 mg/mL eye drop, right eye, 900 μm from optic disk, individual measurements per animal, listed as compond 9): 36.789 μm and 36.607 μm and 39.836 μm and 44.120 μm and 43.136 μm and 43.354 μm and 44.421 μm and 42.075 μm and 41.663 μm and 37.132 μm and 35.896 μm and 35.907 μm and 36.540 μm and 39.019 μm and 40.323 μm and 10.804 μm and 39.318 μm and 42.252 μm and 44.289 μm and 46.476 μm and 47.334 μm and 41.468 μm and 39.312 μm and 40.445 μm and 49.477 μm and 48.242 μm and 50.923 μm and 38.230 μm and 37.912 μm and 42.098 μm
- Thickness of INL (μm), Distance from Optic Disk 900 μm, Mean (compound 9 (pre), 1 mg/mL eye drop, right eye, 900 μm from optic disk, mean per animal): 35.209 μm and 31.074 μm and 28.963 μm and 25.179 μm and 23.963 μm and 33.827 μm and 30.438 μm and 28.704 μm and 35.813 μm and 30.697 μm
- Thickness of IPL (μm), Distance from Optic Disk 900 μm, Mean (compound 9 (pre), 1 mg/mL eye drop, right eye, 900 μm from optic disk, mean per animal, listed as compond 9): 37.744 μm and 43.537 μm and 42.720 μm and 36.312 μm and 38.627 μm and 40.791 μm and 46.033 μm and 40.408 μm and 49.547 μm and 39.413 μm
